Test results taken from the NIST ThermoML archive (doi:10.1016/j.jct.2011.08.016).
Numbers after ± are expanded uncertainties.

Assay: xn = mol fraction of the nth substance listed
Details: Liquid, Vibrating tube method

CCCCCCCCCC [decane] + CCCCCCC
Details | mass density [kg/m3]
313.16 K, 1000 kPa, x2 = 0.0531 | 713.67 ± 0.41
313.16 K, 1000 kPa, x2 = 0.2594 | 706.37 ± 0.41
313.16 K, 2000 kPa, x2 = 0.0531 | 714.44 ± 0.41
313.16 K, 2000 kPa, x2 = 0.2594 | 707.17 ± 0.42
313.16 K, 3000 kPa, x2 = 0.0531 | 715.27 ± 0.42
313.16 K, 3000 kPa, x2 = 0.2594 | 707.97 ± 0.42
313.16 K, 4000 kPa, x2 = 0.0531 | 716.08 ± 0.42
313.16 K, 4000 kPa, x2 = 0.2594 | 708.78 ± 0.43
313.16 K, 5000 kPa, x2 = 0.0531 | 716.94 ± 0.43
313.16 K, 5000 kPa, x2 = 0.2594 | 709.65 ± 0.43
313.16 K, 6000 kPa, x2 = 0.0531 | 717.67 ± 0.43
313.16 K, 6000 kPa, x2 = 0.2594 | 710.5 ± 0.44
313.16 K, 7000 kPa, x2 = 0.0531 | 718.51 ± 0.44
313.16 K, 7000 kPa, x2 = 0.2594 | 711.35 ± 0.44
313.16 K, 8000 kPa, x2 = 0.0531 | 719.34 ± 0.44
313.16 K, 8000 kPa, x2 = 0.2594 | 712.2 ± 0.44
313.16 K, 9000 kPa, x2 = 0.0531 | 720.13 ± 0.44
313.16 K, 9000 kPa, x2 = 0.2594 | 713.05 ± 0.45
313.16 K, 10000 kPa, x2 = 0.0531 | 721 ± 0.45
313.16 K, 10000 kPa, x2 = 0.2594 | 713.88 ± 0.45
313.16 K, 10990 kPa, x2 = 0.0531 | 721.8 ± 0.45
313.16 K, 10990 kPa, x2 = 0.2594 | 714.7 ± 0.46
313.16 K, 12000 kPa, x2 = 0.0531 | 722.62 ± 0.46
313.16 K, 12000 kPa, x2 = 0.2594 | 715.51 ± 0.47
313.16 K, 13000 kPa, x2 = 0.0531 | 723.44 ± 0.46
313.16 K, 13000 kPa, x2 = 0.2594 | 716.3 ± 0.47
313.16 K, 14000 kPa, x2 = 0.0531 | 724.26 ± 0.47
313.16 K, 14000 kPa, x2 = 0.2594 | 717.1 ± 0.48
313.16 K, 15000 kPa, x2 = 0.0531 | 725.05 ± 0.47
313.16 K, 15000 kPa, x2 = 0.2594 | 717.87 ± 0.48
313.16 K, 16000 kPa, x2 = 0.0531 | 725.84 ± 0.48
313.16 K, 16000 kPa, x2 = 0.2594 | 718.64 ± 0.49
313.16 K, 17000 kPa, x2 = 0.0531 | 726.57 ± 0.49
313.16 K, 17000 kPa, x2 = 0.2594 | 719.39 ± 0.49
313.16 K, 18000 kPa, x2 = 0.0531 | 727.29 ± 0.49
313.16 K, 18000 kPa, x2 = 0.2594 | 720.16 ± 0.5
313.16 K, 19000 kPa, x2 = 0.0531 | 728.02 ± 0.5
313.16 K, 19000 kPa, x2 = 0.2594 | 720.88 ± 0.5
313.16 K, 20000 kPa, x2 = 0.0531 | 728.71 ± 0.5
313.16 K, 20000 kPa, x2 = 0.2594 | 721.61 ± 0.51
313.16 K, 21000 kPa, x2 = 0.0531 | 729.39 ± 0.51
313.16 K, 21000 kPa, x2 = 0.2594 | 722.32 ± 0.52
313.16 K, 22000 kPa, x2 = 0.0531 | 730.07 ± 0.51
313.16 K, 22000 kPa, x2 = 0.2594 | 723.02 ± 0.52
313.16 K, 23000 kPa, x2 = 0.0531 | 730.67 ± 0.52
313.16 K, 23000 kPa, x2 = 0.2594 | 723.68 ± 0.53
313.16 K, 24000 kPa, x2 = 0.0531 | 731.27 ± 0.53
313.16 K, 24000 kPa, x2 = 0.2594 | 724.32 ± 0.54
313.16 K, 25000 kPa, x2 = 0.0531 | 731.84 ± 0.53
313.16 K, 25000 kPa, x2 = 0.2594 | 724.92 ± 0.54
313.17 K, 1000 kPa, x2 = 0.952 | 671.13 ± 0.43
313.17 K, 2000 kPa, x2 = 0.952 | 672.16 ± 0.44
313.17 K, 3000 kPa, x2 = 0.952 | 673.18 ± 0.44
313.17 K, 4000 kPa, x2 = 0.952 | 674.17 ± 0.45
313.17 K, 5000 kPa, x2 = 0.952 | 675.18 ± 0.45
313.17 K, 6000 kPa, x2 = 0.952 | 676.18 ± 0.46
313.17 K, 7000 kPa, x2 = 0.952 | 677.15 ± 0.46
313.17 K, 8000 kPa, x2 = 0.952 | 678.12 ± 0.47
313.17 K, 9000 kPa, x2 = 0.952 | 679.08 ± 0.48
313.17 K, 10000 kPa, x2 = 0.952 | 680.03 ± 0.48
313.17 K, 10990 kPa, x2 = 0.952 | 680.95 ± 0.49
313.17 K, 12000 kPa, x2 = 0.952 | 681.86 ± 0.5
313.17 K, 13000 kPa, x2 = 0.952 | 682.77 ± 0.5
313.17 K, 14000 kPa, x2 = 0.952 | 683.65 ± 0.51
313.17 K, 15000 kPa, x2 = 0.952 | 684.52 ± 0.52
313.17 K, 16000 kPa, x2 = 0.952 | 685.39 ± 0.52
313.17 K, 17000 kPa, x2 = 0.952 | 686.24 ± 0.53
313.17 K, 18000 kPa, x2 = 0.952 | 687.08 ± 0.54
313.17 K, 19000 kPa, x2 = 0.952 | 687.9 ± 0.54
313.17 K, 20000 kPa, x2 = 0.952 | 688.71 ± 0.55
313.17 K, 21000 kPa, x2 = 0.952 | 689.52 ± 0.56
313.17 K, 22000 kPa, x2 = 0.952 | 690.29 ± 0.57
313.17 K, 23000 kPa, x2 = 0.952 | 691.05 ± 0.57
313.17 K, 24000 kPa, x2 = 0.952 | 691.82 ± 0.58
313.17 K, 25000 kPa, x2 = 0.952 | 692.57 ± 0.59
313.18 K, 1000 kPa, x2 = 0.5219 | 695.19 ± 0.42
313.18 K, 1000 kPa, x2 = 0.777 | 681.87 ± 0.43
313.18 K, 2000 kPa, x2 = 0.5219 | 696.01 ± 0.42
313.18 K, 2000 kPa, x2 = 0.777 | 682.77 ± 0.43
313.18 K, 3000 kPa, x2 = 0.5219 | 696.84 ± 0.43
313.18 K, 3000 kPa, x2 = 0.777 | 683.7 ± 0.43
313.18 K, 4000 kPa, x2 = 0.5219 | 697.74 ± 0.43
313.18 K, 4000 kPa, x2 = 0.777 | 684.64 ± 0.44
313.18 K, 5000 kPa, x2 = 0.5219 | 698.6 ± 0.44
313.18 K, 5000 kPa, x2 = 0.777 | 685.58 ± 0.45
313.18 K, 6000 kPa, x2 = 0.5219 | 699.5 ± 0.44
313.18 K, 6000 kPa, x2 = 0.777 | 686.52 ± 0.45
313.18 K, 7000 kPa, x2 = 0.5219 | 700.44 ± 0.45
313.18 K, 7000 kPa, x2 = 0.777 | 687.47 ± 0.46
313.18 K, 8000 kPa, x2 = 0.5219 | 701.28 ± 0.45
313.18 K, 8000 kPa, x2 = 0.777 | 688.4 ± 0.46
313.18 K, 9000 kPa, x2 = 0.5219 | 702.17 ± 0.46
313.18 K, 9000 kPa, x2 = 0.777 | 689.32 ± 0.47
